Measured values taken from patent US20200291086A1, “BIOREVERSABLE PROMOIETIES FOR NITROGEN-CONTAINING AND HYDROXYL-CONTAINING DRUGS” (priority 2013, published 2020).
Numbered stars: 1 amine (or outer) side, 2 acyl side, 3 side chain; on linkers, the order of the positions; unused ones are H or OH. Square brackets hold non-standard residues; d marks the D form. Peptide text beside a SMILES is read from it. * marks the point of attachment. X16 = C[C@H](N)c1nc(SCC(=O)NCCNC(=O)OCC2c3ccccc3-c3ccccc32)cn1[C@@H](C)C(=O)*; X10 = C[C@H](N)c1nnnn1[C@@H](CCCCN[*:1])C(=O)[*:2]; X8 = C[C@@H](C(=O)[*:2])n1nncc1[C@@H](N)CCCCN[*:1]; X3 = NCc1cccn1[C@@H](CCCCN[*:1])C(=O)[*:2]; Fmoc = O=C(OCC1c2ccccc2-c2ccccc21)*; X15 = NCc1cc(S(N)(=O)=O)ccc1C(=O)*; X14 = NCCc1ccccc1C(=O)*

What was measured:
[1] = Determination of half life in serum: cleavage of promoieties from capped D-amino acid model peptides; type: in vitro ADME; details: 100% serum, 37° C.; read-out: t 1/2 (h), cleavage of promoiety linked to N terminus of model peptide X-G-dI-dV-dE-dQ-dA-dA (converted)
Description: Determination of Half Life in Serum
Promoiety capped model peptides X-G-dI-dV-dE-dQ-dA-dA were used in the assay. D amino acids were used to prevent other enzymatic cleavage of the model peptides. The peptides were dissolved in 100% serum and incubated at 37° C. Samples were collected for analysis at different time points (e.g., 1 h, 2 h, 4 h, 8 h, 12 h, 24 h, 48 h, 72 h, 96 h, and 120 h).
The concentrations of the promoiety capped model peptides and the released parent model peptides were determined by their respective peak areas. The first order dissociation rate constant of a promoiety capped model peptide was determined by plotting the logarithm of [starting promoiety capped model peptide]/[remaining promoiety capped model peptide] at various time intervals. The half life for cleavage of a promoiety capped model peptide was calculated by using the equation and the slope derived from this plot.

insulin receptor = insulin receptor (Homo sapiens, UniProt P06213); details: cited from earlier work
insulin receptor, sequence (P06213 28-758 limits assumed, species assumed): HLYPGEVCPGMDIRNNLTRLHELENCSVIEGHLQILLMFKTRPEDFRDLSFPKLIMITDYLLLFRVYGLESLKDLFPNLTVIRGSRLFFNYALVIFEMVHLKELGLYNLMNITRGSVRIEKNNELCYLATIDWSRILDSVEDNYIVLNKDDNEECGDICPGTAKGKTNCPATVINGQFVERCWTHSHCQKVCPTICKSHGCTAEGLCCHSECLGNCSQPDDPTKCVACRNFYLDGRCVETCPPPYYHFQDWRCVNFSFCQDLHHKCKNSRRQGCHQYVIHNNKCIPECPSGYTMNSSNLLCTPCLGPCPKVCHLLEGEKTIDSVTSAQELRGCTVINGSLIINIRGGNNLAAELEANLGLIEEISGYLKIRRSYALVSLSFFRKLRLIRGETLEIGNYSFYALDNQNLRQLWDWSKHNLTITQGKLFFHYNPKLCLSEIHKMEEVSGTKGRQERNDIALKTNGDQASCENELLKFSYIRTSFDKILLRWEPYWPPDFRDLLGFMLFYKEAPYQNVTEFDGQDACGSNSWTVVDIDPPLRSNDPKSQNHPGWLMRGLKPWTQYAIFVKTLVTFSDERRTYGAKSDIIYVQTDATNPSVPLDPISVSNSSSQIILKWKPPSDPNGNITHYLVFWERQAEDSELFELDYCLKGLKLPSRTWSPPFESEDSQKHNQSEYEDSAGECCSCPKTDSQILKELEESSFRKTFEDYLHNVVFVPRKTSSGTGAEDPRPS
insulin receptor, sequence (P06213 763-1382 partner limits assumed, species assumed): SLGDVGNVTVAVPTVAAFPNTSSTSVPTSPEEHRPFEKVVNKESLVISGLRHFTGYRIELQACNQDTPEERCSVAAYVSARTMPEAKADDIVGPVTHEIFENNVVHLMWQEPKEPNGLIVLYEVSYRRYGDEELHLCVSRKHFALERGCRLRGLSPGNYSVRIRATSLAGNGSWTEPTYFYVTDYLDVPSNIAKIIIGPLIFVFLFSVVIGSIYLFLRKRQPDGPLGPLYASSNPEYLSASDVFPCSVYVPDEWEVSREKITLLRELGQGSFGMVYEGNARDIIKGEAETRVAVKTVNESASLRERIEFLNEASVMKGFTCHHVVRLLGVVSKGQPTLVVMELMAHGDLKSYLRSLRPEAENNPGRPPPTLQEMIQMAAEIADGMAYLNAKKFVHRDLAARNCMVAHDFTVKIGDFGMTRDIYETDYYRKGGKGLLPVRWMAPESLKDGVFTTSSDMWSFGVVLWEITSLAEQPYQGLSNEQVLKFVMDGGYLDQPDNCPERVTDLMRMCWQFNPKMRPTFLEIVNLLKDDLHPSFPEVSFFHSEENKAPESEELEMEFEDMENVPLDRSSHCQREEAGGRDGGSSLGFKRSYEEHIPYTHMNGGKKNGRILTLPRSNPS

Compound	half-life [1]	binding affinity retained relative to native insulin (insulin receptor)
CC[C@@H](C)[C@@H](NC(=O)CNC(=O)[C@H](C)n1cc(SCC(=O)NCCNC(=O)OCC2c3ccccc3-c3ccccc32)nc1[C@H](C)N)C(=O)N[C@@H](C(=O)N[C@H](CCC(=O)O)C(=O)N[C@H](CCC(N)=O)C(=O)N[C@H](C)C(=O)N[C@H](C)C(=O)O)C(C)C (X16-G[dI][dV][dE][dQ][dA][dA]-OH)	72.3 h	–
CC[C@@H](C)[C@@H](NC(=O)CNC(=O)[C@H](C)n1nncc1[C@@H](N)CCCCNC(=O)OCC1c2ccccc2-c2ccccc21)C(=O)N[C@@H](C(=O)N[C@H](CCC(=O)O)C(=O)N[C@H](CCC(N)=O)C(=O)N[C@H](C)C(=O)N[C@H](C)C(=O)O)C(C)C (Fmoc-[X8]G[dI][dV][dE][dQ][dA][dA]-OH)	96.4 h	–
[LysB29-tetradecanoyl, des B30] insulin [insulin detemir]	–	15-20%
CC[C@@H](C)[C@@H](NC(=O)CNC(=O)[C@H](CCCCNC(=O)OCC1c2ccccc2-c2ccccc21)n1nnnc1[C@H](C)N)C(=O)N[C@@H](C(=O)N[C@H](CCC(=O)O)C(=O)N[C@H](CCC(N)=O)C(=O)N[C@H](C)C(=O)N[C@H](C)C(=O)O)C(C)C (Fmoc-[X10]G[dI][dV][dE][dQ][dA][dA]-OH)	91.5 h	–
CC[C@@H](C)[C@@H](NC(=O)CNC(=O)c1ccccc1CCN)C(=O)N[C@@H](C(=O)N[C@H](CCC(=O)O)C(=O)N[C@H](CCC(N)=O)C(=O)N[C@H](C)C(=O)N[C@H](C)C(=O)O)C(C)C (X14-G[dI][dV][dE][dQ][dA][dA]-OH)	106 h	–
CC[C@@H](C)[C@@H](NC(=O)CNC(=O)[C@H](CCCCNC(=O)OCC1c2ccccc2-c2ccccc21)n1cccc1CN)C(=O)N[C@@H](C(=O)N[C@H](CCC(=O)O)C(=O)N[C@H](CCC(N)=O)C(=O)N[C@H](C)C(=O)N[C@H](C)C(=O)O)C(C)C (Fmoc-[X3]G[dI][dV][dE][dQ][dA][dA]-OH)	103 h	–
CC[C@@H](C)[C@@H](NC(=O)CNC(=O)c1ccc(S(N)(=O)=O)cc1CN)C(=O)N[C@@H](C(=O)N[C@H](CCC(=O)O)C(=O)N[C@H](CCC(N)=O)C(=O)N[C@H](C)C(=O)N[C@H](C)C(=O)O)C(C)C (X15-G[dI][dV][dE][dQ][dA][dA]-OH)	39.9 h	–
